Like-named read-outs stand apart in the source and are kept apart here. Positions of bridges follow the written chain, without caps; N, C: chain ends. Residues, ends and D or L forms follow the SMILES beside them.
Columns and labels:
Assay type in all cases: cell-based
hKv1.3 = hKv1.3 (Homo sapiens, UniProt P22001); assay: cell-based; settings: Kv1.3 (IWQ) IC50 (nM, Avg)
[1] = test system: IFN-g secretion from T cells in human whole blood
[2] = test system: IL-2 secretion from T cells in human whole blood; settings: read-out: WB (IL-2) IC50 (nM, Avg)
[3] = read-out: WB (IFNg) IC50 (nM, Avg)

Sequence of hKv1.3 (P22001 whole entry): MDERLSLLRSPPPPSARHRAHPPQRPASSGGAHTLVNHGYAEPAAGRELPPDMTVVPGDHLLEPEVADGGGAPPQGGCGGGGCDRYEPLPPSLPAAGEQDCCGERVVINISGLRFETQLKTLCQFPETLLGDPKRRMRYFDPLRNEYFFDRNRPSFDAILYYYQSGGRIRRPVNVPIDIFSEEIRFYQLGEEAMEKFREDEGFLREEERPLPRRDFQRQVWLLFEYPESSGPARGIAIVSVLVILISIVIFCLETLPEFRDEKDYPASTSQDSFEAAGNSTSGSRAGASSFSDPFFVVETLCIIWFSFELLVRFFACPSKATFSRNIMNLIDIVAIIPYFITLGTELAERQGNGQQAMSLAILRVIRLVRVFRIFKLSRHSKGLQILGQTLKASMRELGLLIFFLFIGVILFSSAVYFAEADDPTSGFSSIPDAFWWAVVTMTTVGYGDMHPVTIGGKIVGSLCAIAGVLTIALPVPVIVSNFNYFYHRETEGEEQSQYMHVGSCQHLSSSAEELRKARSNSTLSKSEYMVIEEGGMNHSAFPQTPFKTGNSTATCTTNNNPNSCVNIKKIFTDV

SMILES: CC[C@H](C)[C@@H]1NC(=O)[C@@H](NC(=O)[C@H](CO)NC(=O)[C@@H](N)CCCNC(=N)N)CSSC[C@@H](C(=O)O)NC(=O)[C@H]([C@@H](C)O)NC(=O)CNC(=O)[C@@H]2CSSC[C@@H]3NC(=O)[C@H](CCC(N)=O)NC(=O)[C@H](Cc4ccccc4)NC(=O)[C@H](C)NC(=O)[C@H]([C@@H](C)O)NC(=O)[C@H](CSSC[C@H](NC(=O)[C@H](Cc4ccccc4)NC(=O)[C@H](CO)NC(=O)[C@H](CC(C)C)NC(=O)[C@H](CCCNC(=N)N)NC(=O)[C@H](Cc4ccc(O)cc4)NC(=O)[C@H](CCCCN)NC(=O)[C@H](CCSC)NC(=O)[C@H](CO)NC(=O)[C@H](C)NC(=O)[C@H](CCCCN)NC3=O)C(=O)N[C@@H](CCCNC(=N)N)C(=O)N[C@@H](CCCCN)C(=O)N[C@@H]([C@@H](C)O)C(=O)N2)NC(=O)[C@H](CCCNC(=N)N)NC(=O)[C@H](CO)NC(=O)[C@H](CCCCN)NC(=O)[C@@H]2CCCN2C(=O)[C@H]([C@@H](C)CC)NC(=O)[C@H]([C@@H](C)O)NC(=O)[C@H](CC(=O)O)NC1=O [[Ala19]ShK]
- IC50 (hKv1.3): 0.237 nM
- IC50 [1, 3]: 0.472 nM
- IC50 [2]: 0.379 nM

SMILES: CC[C@H](C)[C@@H]1NC(=O)[C@@H](NC(=O)[C@H](CO)NC(=O)[C@@H](N)CCCNC(=N)N)CSSC[C@@H](C(=O)O)NC(=O)[C@H]([C@@H](C)O)NC(=O)CNC(=O)[C@@H]2CSSC[C@@H]3NC(=O)[C@H](CCC(N)=O)NC(=O)[C@H](Cc4ccccc4)NC(=O)[C@H](C)NC(=O)[C@H]([C@@H](C)O)NC(=O)[C@H](CSSC[C@H](NC(=O)[C@H](Cc4ccccc4)NC(=O)[C@H](CO)NC(=O)[C@H](CC(C)C)NC(=O)[C@H](CCCNC(=N)N)NC(=O)[C@H](Cc4ccc(O)cc4)NC(=O)[C@H](CCCCN)NC(=O)[C@H](CCSC)NC(=O)[C@H](CO)NC(=O)[C@H](Cc4c[nH]cn4)NC(=O)[C@H](CCC(=O)O)NC3=O)C(=O)N[C@@H](CCCNC(=N)N)C(=O)N[C@@H](CCCCN)C(=O)N[C@@H]([C@@H](C)O)C(=O)N2)NC(=O)[C@H](CCCNC(=N)N)NC(=O)[C@H](CO)NC(=O)[C@H](CCCCN)NC(=O)[C@@H]2CCCN2C(=O)[C@H]([C@@H](C)CC)NC(=O)[C@H]([C@@H](C)O)NC(=O)[C@H](CC(=O)O)NC1=O [[Glu18]ShK]
- IC50 (hKv1.3): 0.117 nM
- IC50 ([1]; read-out: WB (IFNg) IC5- (nM, Avg)): 0.083 nM
- IC50 [2]: 0.047 nM

SMILES: CC[C@H](C)[C@@H]1NC(=O)[C@@H](NC(=O)[C@H](CO)NC(=O)[C@@H](N)CCCNC(=N)N)CSSC[C@@H](C(=O)O)NC(=O)[C@H]([C@@H](C)O)NC(=O)CNC(=O)[C@@H]2CSSC[C@@H]3NC(=O)[C@H](CCC(N)=O)NC(=O)[C@H](Cc4ccccc4)NC(=O)[C@H](C)NC(=O)[C@H]([C@@H](C)O)NC(=O)[C@H](CSSC[C@H](NC(=O)[C@H](Cc4ccccc4)NC(=O)[C@H](CO)NC(=O)[C@H](CC(C)C)NC(=O)[C@H](CCCNC(=N)N)NC(=O)[C@H](Cc4ccc(O)cc4)NC(=O)[C@H](CCCCN)NC(=O)[C@H](CCSC)NC(=O)[C@H](CO)NC(=O)[C@H](Cc4cccc5ccccc45)NC(=O)[C@H](CCCCN)NC3=O)C(=O)N[C@@H](CCCNC(=N)N)C(=O)N[C@@H](CCCCN)C(=O)N[C@@H]([C@@H](C)O)C(=O)N2)NC(=O)[C@H](CCCNC(=N)N)NC(=O)[C@H](CO)NC(=O)[C@H](CCCCN)NC(=O)[C@@H]2CCCN2C(=O)[C@H]([C@@H](C)CC)NC(=O)[C@H]([C@@H](C)O)NC(=O)[C@H](CC(=O)O)NC1=O [[1-Nal19]ShK]
- IC50 (hKv1.3): 0.277 nM
- IC50 [1, 3]: 0.255 nM
- IC50 [2]: 0.153 nM

SMILES: CC[C@H](C)[C@@H]1NC(=O)[C@H]([C@@H](C)O)NC(=O)[C@H](CC(=O)O)NC(=O)[C@H](CCC(=O)O)NC(=O)[C@@H](NC(=O)[C@H](CO)NC(=O)[C@@H](N)CCCNC(=N)N)CSSC[C@@H](C(N)=O)NC(=O)[C@H]([C@@H](C)O)NC(=O)CNC(=O)[C@@H]2CSSC[C@@H]3NC(=O)[C@H](CCCCN)NC(=O)[C@H](Cc4ccccc4)NC(=O)[C@H](C)NC(=O)[C@H]([C@@H](C)O)NC(=O)[C@H](CSSC[C@H](NC(=O)[C@H](Cc4ccccc4)NC(=O)[C@H](CO)NC(=O)[C@H](CC(C)C)NC(=O)[C@H](CCCNC(=N)N)NC(=O)[C@H](Cc4ccc(O)cc4)NC(=O)[C@H](CCCCN)NC(=O)[C@H](CCSC)NC(=O)[C@H](CO)NC(=O)[C@H](Cc4c[nH]cn4)NC(=O)[C@H](CCCNC(=N)N)NC3=O)C(=O)N[C@@H](CCCCN)C(=O)N[C@@H](CCCNC(=N)N)C(=O)N[C@@H]([C@@H](C)O)C(=O)N2)NC(=O)[C@H](CCCNC(=N)N)NC(=O)[C@H](CCC(=O)O)NC(=O)[C@H](CCCCN)NC(=O)[C@@H]2CCCN2C1=O [[Glu4,10; Lys16,29;Arg18,30]ShK-amide] (H-RSCEDTIPKERCTAFKCRHSMKYRLSFCKRTCGTC-NH2; disulfide 3-35, 12-28, 17-32)
- IC50 (hKv1.3): 0.064 nM
- IC50 [1, 3]: 0.217 nM
- IC50 [2]: 0.114 nM

SMILES: CC[C@H](C)[C@@H]1NC(=O)[C@@H](NC(=O)[C@H](CO)NC(=O)[C@@H](N)CCCNC(=N)N)CSSC[C@@H](C(=O)O)NC(=O)[C@H]([C@@H](C)O)NC(=O)CNC(=O)[C@@H]2CSSC[C@@H]3NC(=O)[C@H](CCC(N)=O)NC(=O)[C@H](Cc4ccccc4)NC(=O)[C@H](C)NC(=O)[C@H]([C@@H](C)O)NC(=O)[C@H](CSSC[C@H](NC(=O)[C@H](Cc4ccccc4)NC(=O)[C@H](CO)NC(=O)[C@H](CC(C)C)NC(=O)[C@H](CCCNC(=N)N)NC(=O)[C@H](Cc4ccc(O)cc4)NC(=O)[C@H](CCCCN)NC(=O)[C@H](CCSC)NC(=O)[C@H](CO)NC(=O)[C@H](Cc4c[nH]cn4)NC(=O)[C@H](CCCCN)NC3=O)C(=O)N[C@@H](CCCNC(=N)N)C(=O)N[C@@H](CCCCN)C(=O)N[C@@H]([C@@H](C)O)C(=O)N2)NC(=O)[C@H](CCCNC(=N)N)NC(=O)[C@H](CO)NC(=O)[C@H](CCCCN)NC(=O)[C@@H]2CCCN2C(=O)[C@H]([C@@H](C)CC)NC(=O)[C@H](CCCNC(=N)N)NC(=O)[C@H](CC(=O)O)NC1=O [[Arg6]ShK]
- IC50 (hKv1.3): 0.178 nM
- IC50 [1, 3]: 0.4 nM
- IC50 [2]: 0.246 nM

SMILES: CC[C@H](C)[C@@H]1NC(=O)[C@@H](NC(=O)[C@H](CO)NC(=O)[C@@H](N)CCCNC(=N)N)CSSC[C@@H](C(=O)O)NC(=O)[C@H]([C@@H](C)O)NC(=O)CNC(=O)[C@@H]2CSSC[C@@H]3NC(=O)[C@H](CCC(N)=O)NC(=O)[C@H](Cc4ccccc4)NC(=O)[C@H](C)NC(=O)[C@H]([C@@H](C)O)NC(=O)[C@H](CSSC[C@H](NC(=O)[C@H](Cc4ccccc4)NC(=O)[C@H](CO)NC(=O)[C@H](CC(C)C)NC(=O)[C@H](CCCNC(=N)N)NC(=O)[C@H](Cc4ccc(O)cc4)NC(=O)[C@H](CCCCN)NC(=O)[C@H](CCCCN)NC(=O)[C@H](CO)NC(=O)[C@H](Cc4c[nH]cn4)NC(=O)[C@H](CCCCN)NC3=O)C(=O)N[C@@H](CCCNC(=N)N)C(=O)N[C@@H](CCCCN)C(=O)N[C@@H]([C@@H](C)O)C(=O)N2)NC(=O)[C@H](CCCNC(=N)N)NC(=O)[C@H](CO)NC(=O)[C@H](CCCCN)NC(=O)[C@@H]2CCCN2C(=O)[C@H]([C@@H](C)CC)NC(=O)[C@H]([C@@H](C)O)NC(=O)[C@H](CC(=O)O)NC1=O [[Lys21]ShK]
- IC50 (hKv1.3): 0.822 nM
- IC50 [1, 3]: 4.82 nM
- IC50 [2]: 3.59 nM
